Results on 1 compound are retold here after patent US10517846B2, “Pharmaceutical compositions for treating acne” (Dr. Reddy's Laboratories Ltd., priority 2016, dated 2019).

Molecules are shown by their SMILES. ≈ marks a conversion by molar mass, not a printed value.

Data set [1] is described as follows: Solubility studies for isotretinoin using non-aqueous solvents. The format is physicochemical. The conditions noted are these: organic solvent or mixture. The protocol:
Solubility studies for isotretinoin were carried out using non-aqueous solvents as mentioned in table 1.

For data set [2] the following is noted: oral; patients with severe acne; cited from earlier work.
For data set [3] the following is noted: cited from earlier work.

For the compound `CC1=C(/C=C/C(C)=C/C=C/C(C)=C\C(=O)O)C(C)(C)CCC1` [isotretinoin, (2Z,4E,6E,8E)-3,7-dimethyl-9-(2,6,6-trimethylcyclohex-1-en-1-yl)nona-2,4,6,8-tetraenoic acid], the solubility (usually the dissolved amount per volume that the medium holds) in data set [1] (solvent Acetone) worked out at 30 mg/mL (≈ 99.9 mM); in data set [1] (solvent Dichloromethane), 12 mg/mL (≈ 39.9 mM); in data set [1] (solvent Ethanol), 10 mg/mL (≈ 33.3 mM); in data set [1] (solvent Isopropyl alcohol), 12 mg/mL (≈ 39.9 mM); in data set [1] (solvent Methanol) it was 10 mg/mL (≈ 33.3 mM). For the same compound, the “long-term remission, share of patients” value in data set [2] is reported as “about 80%”. In data set [3], the water solubility entry is reported as “very low water solubility”.
